Measurements reported in patent US8574563B2 (Bristol-Myers Squibb Company, priority 2006, dated 2013).

The compounds below were run on HCV 1b-377-neo replicon cells (assay: HCV replicon assay, HCV 1b-377-neo replicon cells (1b FRET)). Conditions: HCV 1b-377-neo replicon cells; HCV 1b genotype; read-out: EC50 range against HCV 1b (Table 2, Range).
Assay type: cell-based, Hepatitis C virus genotype 1b
Outline: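 FRET-based replicon assay in HCV 1b-377-neo cells, including a comparison line carrying the NS5A Y2065H mutation that confers resistance to a reference compound.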

Q: For “(1R)-N,N-dimethyl-2-((2S)-2-(5-(4′-(2-((2S)-1- ((2R)-2-(4-morpholinyl)-2-phenylacetyl)-2- pyrrolidinyl)-1H-imidazol-5-yl)-4-biphenylyl)- 1H-imidazol-2-yl)-1-pyrrolidinyl)-2-oxo-1- phenylethanamine [Example 89]”, which EC50 is on record?
A: 0.001 to 0.999 nM

Q: “methyl (2-((2S)-2-(5-(4′-(2-((2S)-1-((2R)-2- (dimethylamino)-2-phenylacetyl)-2- pyrrolidinyl)-1H-imidazol-5-yl)-4-biphenylyl)- 1H-imidazol-2-yl)-1-pyrrolidinyl)-2- oxoethyl)carbamate [Example 91]” was tested. Which EC50 did it give?
A: 0.001 to 0.999 nM

Same assay, conditions: Hepatitis C virus, HCV 1b-377-neo replicon cells; HCV 1b genotype; read-out: EC50 range against HCV 1b (Table 2, Range)

Q: With COC(=O)N[C@H](CCc1ccccc1)CC(=O)N1CCC[C@H]1c1ncc(-c2ccc(-c3ccc(-c4cnc([C@@H]5CCCN5C(=O)C[C@@H](CCc5ccccc5)NC(=O)OC)[nH]4)cc3)cc2)[nH]1 [cj-135, dimethyl (4,4′-biphenyldiylbis(1H-imidazole-5,2-diyl(2S)-2,1-pyrrolidinediyl((3R)-1-oxo-5-phenyl-1,3-pentanediyl)))biscarbamate] as the compound, how does the EC50 read?
A: 1 to 99 nM

Q: Which EC50 does the source give for COC(=O)N[C@@H](Cc1cccnc1)C(=O)N1CCC[C@H]1c1ncc(-c2ccc(-c3ccc(-c4cnc([C@@H]5CCCN5C(=O)[C@@H](NC(=O)OC)[C@@H](C)OC)[nH]4)cc3)cc2)[nH]1 [cj-82, methyl ((1S)-2-((2S)-2-(5-(4′-(2-((2S)-1-((2S,3R)-3-methoxy-2-((methoxycarbonyl)amino)butanoyl)-2-pyrrolidinyl)-1H-imidazol-5-yl)-4-biphenylyl)-1H-imidazol-2-yl)-1-pyrrolidinyl)-2-oxo-1-(3-pyridinylmethyl)ethyl)carbamate] here?
A: 0.001 to 0.999 nM

Q: How did the EC50 turn out when COC(=O)N[C@@H](C(=O)N1CC2(CC2)C[C@H]1c1nc(-c2ccc(-c3ccc(-c4c[nH]c([C@@H]5CC6(CC6)CN5C(=O)[C@H](NC(=O)OC)C(C)C)n4)cc3)cc2)c[nH]1)C(C)C [Example M149, methyl ((1R)-1-(((6S)-6-(4-(4′-(2-((6S)-5-((2R)-2-((methoxycarbonyl)amino)-3-methylbutanoyl)-5-azaspiro[2.4]hept-6-yl)-1H-imidazol-4-yl)-4-biphenylyl)-1H-imidazol-2-yl)-5-azaspiro[2.4]hept-5-yl)carbonyl)-2-methylpropyl)carbamate] was run?
A: 1 to 99 nM

Q: COC(=O)N[C@H](C(=O)N1[C@H](c2ncc(-c3ccc(-c4ccc(-c5cnc([C@@H]6C[C@@H]7C[C@@H]7N6C(=O)[C@@H](NC(=O)OC)C(C)(C)C)[nH]5)cc4)cc3)[nH]2)C[C@@H]2C[C@@H]21)C(C)(C)C [Example M128, methyl ((1S)-1-(((1S,3S,5S)-3-(5-(4′-(2-((1S,3S,5S)-2-((2S)-2-((methoxycarbonyl)amino)-3,3-dimethylbutanoyl)-2-azabicyclo[3.1.0]hex-3-yl)-1H-imidazol-5-yl)-4-biphenylyl)-1H-imidazol-2-yl)-2-azabicyclo[3.1.0]hex-2-yl)carbonyl)-2,2-dimethylpropyl)carbamate] was tested. Which EC50 did it give?
A: 1 to 99 nM

Q: For CN(C)[C@@H](C(=O)N1CC(F)(F)C[C@H]1c1ncc(-c2ccc(-c3ccc(-c4cnc([C@@H]5CC(F)(F)CN5C(=O)[C@@H](c5ccccc5)N(C)C)[nH]4)cc3)cc2)[nH]1)c1ccccc1 [OL-8, (1R,1′R)-2,2′-(4,4′-biphenyldiylbis(1H-imidazole-4,2-diyl((2S)-4,4-difluoro-2,1-pyrrolidinediyl)))bis(N,N-dimethyl-2-oxo-1-phenylethanamine)], which EC50 is on record?
A: 0.001 to 0.999 nM

Q: CCN(CC)[C@@H](C(=O)N1CCC[C@H]1c1ncc(-c2ccc(-c3ccc(-c4cnc([C@@H]5CCCN5C(=O)[C@@H](C(C)C)N(CC)CC)[nH]4)cc3)cc2)[nH]1)c1ccccc1 [Example M45, (2R)-1-((2S)-2-(5-(4′-(2-((2S)-1-((2R)-2-(diethylamino)-2-phenylacetyl)-2-pyrrolidinyl)-1H-imidazol-5-yl)-4-biphenylyl)-1H-imidazol-2-yl)-1-pyrrolidinyl)-N,N-diethyl-3-methyl-1-oxo-2-butanamine] was tested. Which EC50 did it give?
A: 1 to 99 nM

Q: For CO[C@@H](C(=O)N1CCC[C@H]1c1ncc(-c2ccc(-c3ccc(-c4cnc([C@@H]5CCCN5C(=O)[C@@H](c5ccccc5Cl)N(C)C)[nH]4)cc3)cc2)[nH]1)c1ccccc1 [Example 107-37, (1R)-1-(2-chlorophenyl)-2-((2S)-2-(5-(4′-(2-((2S)-1-((2R)-2-methoxy-2-phenylacetyl)-2-pyrrolidinyl)-1H-imidazol-5-yl)-4-biphenylyl)-1H-imidazol-2-yl)-1-pyrrolidinyl)-N,N-dimethyl-2-oxoethanamine], which EC50 is on record?
A: 0.001 to 0.999 nM

Q: How did the EC50 turn out when COC(=O)N[C@@H](C(=O)N[C@@H](C)c1ncc(-c2ccc(-c3ncc(-c4cnc([C@@H]5CCCN5C(=O)[C@@H](c5ccccc5)N5CCCCC5)[nH]4)cn3)cc2)[nH]1)c1ccccc1 [Example 152l-2, methyl ((1R)-2-oxo-1-phenyl-2-(((1S)-1-(4-(4-(5-(2-((2S)-1-((2R)-2-phenyl-2-(1-piperidinyl)acetyl)-2-pyrrolidinyl)-1H-imidazol-5-yl)-2-pyrimidinyl)phenyl)-1H-imidazol-2-yl)ethyl)amino)ethyl)carbamate] was run?
A: 0.001 to 0.999 nM

Q: For COC(=O)N[C@@H](C)C(=O)N1C[C@@H](O)C[C@H]1c1ncc(-c2ccc(-c3ccc(-c4cnc([C@@H]5C[C@H](O)CN5C(=O)[C@H](C)NC(=O)OC)[nH]4)cc3)cc2)[nH]1 [JG-8, methyl ((1S)-2-((2S,4S)-4-hydroxy-2-(5-(4′-(2-((2S,4S)-4-hydroxy-1-(N-(methoxycarbonyl)-L-alanyl)-2-pyrrolidinyl)-1H-imidazol-5-yl)-4-biphenylyl)-1H-imidazol-2-yl)-1-pyrrolidinyl)-1-methyl-2-oxoethyl)carbamate], which EC50 is on record?
A: 0.001 to 0.999 nM

Q: With CCCN(CCC)[C@H](C)C(=O)N1CCC[C@H]1c1ncc(-c2ccc(-c3ccc(-c4cnc([C@@H]5CCCN5C(=O)[C@@H](c5ccccc5)N(CC)CC)[nH]4)cc3)cc2)[nH]1 [Example M46, N-((1R)-2-((2S)-2-(5-(4′-(2-((2S)-1-((2R)-2-(diethylamino)-2-phenylacetyl)-2-pyrrolidinyl)-1H-imidazol-5-yl)-4-biphenylyl)-1H-imidazol-2-yl)-1-pyrrolidinyl)-1-methyl-2-oxoethyl)-N-propyl-1-propanamine] as the compound, how does the EC50 read?
A: 1 to 99 nM

Q: Which EC50 does the source give for COC(=O)N[C@@H](Cc1c[nH]nn1)C(=O)N1CCC[C@H]1c1ncc(-c2ccc(-c3ccc(-c4cnc([C@@H]5CCCN5C(=O)[C@@H](NC(=O)OC)C(C)C)[nH]4)cc3)cc2)[nH]1 [cj-34, methyl ((1S)-1-(((2S)-2-(5-(4′-(2-((2S)-1-((2S)-2-((methoxycarbonyl)amino)-3-(1H-1,2,3-triazol-4-yl)propanoyl)-2-pyrrolidinyl)-1H-imidazol-5-yl)-4-biphenylyl)-1H-imidazol-2-yl)-1-pyrrolidinyl)carbonyl)-2-methylpropyl)carbamate] here?
A: 0.001 to 0.999 nM

Q: How did the EC50 turn out when COC(=O)C[C@H](NC(=O)OC)C(=O)N1CCC[C@H]1c1ncc(-c2ccc(-c3ccc(-c4cnc([C@@H]5CCCN5C(=O)[C@@H](NC(=O)OC)C(C)C)[nH]4)cc3)cc2)[nH]1 [Example M110, methyl (3S)-3-((methoxycarbonyl)amino)-4-((2S)-2-(5-(4′-(2-((2S)-1-(N-(methoxycarbonyl)-L-valyl)-2-pyrrolidinyl)-1H-imidazol-5-yl)-4-biphenylyl)-1H-imidazol-2-yl)-1-pyrrolidinyl)-4-oxobutanoate] was run?
A: 1 to 99 nM

Q: COC(=O)N[C@@H](Cc1ccccn1)C(=O)N1CCC[C@H]1c1ncc(-c2ccc(-c3ccc(-c4cnc([C@@H]5CCCN5C(=O)[C@@H](NC(=O)OC)[C@@H](C)OC)[nH]4)cc3)cc2)[nH]1 [cj-67] was tested. Which EC50 did it give?
A: 0.001 to 0.999 nM

Q: How did the EC50 turn out when CC1(O)CCN([C@@H](C(=O)N2CCC[C@H]2c2ncc(-c3ccc(-c4ccc(-c5cnc([C@@H]6CCCN6C(=O)[C@@H](c6ccccc6)N6CCCCC6)[nH]5)cc4)cc3)[nH]2)c2ccccc2)CC1 [Example 107-2, 4-methyl-1-((1R)-2-oxo-1-phenyl-2-((2S)-2-(5-(4′-(2-((2S)-1-((2R)-2-phenyl-2-(1-piperidinyl)acetyl)-2-pyrrolidinyl)-1H-imidazol-5-yl)-4-biphenylyl)-1H-imidazol-2-yl)-1-pyrrolidinyl)ethyl)-4-piperidinol] was run?
A: 0.001 to 0.999 nM

Q: With CCCOC(=O)N[C@@H](C)C(=O)N1CCC[C@H]1c1nc(-c2ccc(-c3ccc(-c4cnc([C@@H]5CCCN5C(=O)[C@H](C)NC(=O)OCCC)[nH]4)cc3)cc2)c[nH]1 [Example F20, propyl ((1S)-1-methyl-2-oxo-2-((2S)-2-(4-(4′-(2-((2S)-1-(N-(propoxycarbonyl)-L-alanyl)-2-pyrrolidinyl)-1H-imidazol-5-yl)-4-biphenylyl)-1H-imidazol-2-yl)-1-pyrrolidinyl)ethyl)carbamate] as the compound, how does the EC50 read?
A: 100 to 999 nM

Q: How did the EC50 turn out when COC(=O)N[C@@H](C(=O)N1CCC[C@H]1c1nc(-c2ccc(-c3ccc(-c4[nH]c([C@@H]5CCCN5C(=O)[C@H](NC(=O)OC)c5ccccc5)nc4C)cc3)cc2)c(C)[nH]1)c1ccccc1 [Example E5j, dimethyl (4,4′-biphenyldiylbis((4-methyl-1H-imidazole-5,2-diyl)(2S)-2,1-pyrrolidinediyl((1R)-2-oxo-1-phenyl-2,1-ethanediyl)))biscarbamate] was run?
A: 0.001 to 0.999 nM

Q: With O=C1C[C@@H](C(=O)N2CCC[C@H]2c2ncc(-c3ccc(-c4ccc(-c5cnc([C@@H]6CCCN6C(=O)[C@@H]6CC(=O)NC(=O)N6)[nH]5)cc4)cc3)[nH]2)NC(=O)N1 [cj-132, (6S,6′S)-6,6′-(4,4′-biphenyldiylbis(1H-imidazole-5,2-diyl(2S)-2,1-pyrrolidinediylcarbonyl))didihydro-2,4(1H,3H)-pyrimidinedione] as the compound, how does the EC50 read?
A: 100 to 999 nM

Q: How did the EC50 turn out when O=C(c1ccc(N2CCOCC2)cc1)N1CCC[C@H]1c1ncc(-c2ccc(-c3ccc(-c4cnc([C@@H]5CCCN5C(=O)[C@@H](c5ccccc5)N5CCCCC5)[nH]4)cc3)cc2)[nH]1 [Example 107-10, 4-(4-(((2S)-2-(5-(4′-(2-((2S)-1-((2R)-2-phenyl-2-(1-piperidinyl)acetyl)-2-pyrrolidinyl)-1H-imidazol-5-yl)-4-biphenylyl)-1H-imidazol-2-yl)-1-pyrrolidinyl)carbonyl)phenyl) morpholine] was run?
A: 0.001 to 0.999 nM
